Experimental data published in ChEMBL document CHEMBL1201862, “PubChem BioAssay data set” (2004).
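These data come from cells grown in 96-well plates and exposed to compound for 48 hours at five concentrations. GI50 marks 50% less growth.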 Active and inactive are the calls of the source. Cut-off read from the data, not from the text of the source: active = GI50 up to about 1.1 µM and inactive = higher.

Tests used:
Experiment in all cases: NCI-60 cell line screen, 48 h
[1] = test system: SK-MEL-28
[2] = test system: COLO 205
[3] = test system: OVCAR-3
[4] = test system: A549
[5] = test system: CCRF-CEM
[6] = test system: U-251
[7] = test system: DU-145
[8] = test system: OVCAR-5
[9] = test system: MOLT-4
[10] = test system: Hs-578T
[11] = test system: NCI-H226
[12] = test system: A498
[13] = test system: HCT-116
[14] = test system: MCF7
[15] = test system: OVCAR-8
[16] = test system: SF-539
[17] = test system: HT-29
[18] = test system: HCT-15
[19] = test system: SN12C
[20] = test system: PC-3
[21] = test system: SF-268
[22] = test system: UO-31
[23] = test system: SNB-19
[24] = test system: NCI-H460
[25] = test system: TK-10
[26] = test system: SNB-75
[27] = test system: SW-620
[28] = test system: BT-549
[29] = test system: SK-MEL-5
[30] = test system: CAKI-1
[31] = test system: HOP-62
[32] = test system: K562
[33] = test system: SK-OV-3
[34] = test system: MDA-N
[35] = test system: HOP-92
[36] = test system: T47D
[37] = test system: HL-60
[38] = test system: HCC 2998
[39] = test system: SK-MEL-2
[40] = test system: 786-0
[41] = test system: OVCAR-4
[42] = test system: ACHN
[43] = test system: SF-295
[44] = test system: M14
[45] = test system: LOX IMVI
[46] = test system: MDA-MB-435
[47] = test system: SR
[48] = test system: NCI-H522
[49] = test system: RPMI-8226
[50] = test system: RXF 393
[51] = test system: NCI-H23
[52] = test system: EKVX
[53] = test system: MDA-MB-231
[54] = test system: IGROV-1
[55] = test system: KM12
[56] = test system: Malme-3M
[57] = test system: NCI/ADR-RES
[58] = test system: UACC-62
[59] = test system: UACC-257

CSc1c(C#N)c(O)nc(N)c1C(=O)Nc1ccc(Cl)cc1
GI50 [1]: 14.7 µM (inactive)
GI50 [2]: 10.6 µM (inactive)
GI50 [3]: 14.9 µM (inactive)
GI50 [4]: 13.4 µM (inactive)
GI50 [5]: 30.3 µM (inactive)
GI50 [6]: 19.5 µM (inactive)
GI50 [7]: 17.5 µM (inactive)
GI50 [8]: 33 µM (inactive)
GI50 [9]: 18.8 µM (inactive)
GI50 [10]: 31 µM (inactive)
GI50 [11]: 28 µM (inactive)
GI50 [12]: 16.6 µM (inactive)
GI50 [13]: 5.45 µM (inactive)
GI50 [14]: 8.63 µM (inactive)
GI50 [15]: 19.1 µM (inactive)
GI50 [16]: 16.4 µM (inactive)
GI50 [17]: 22.2 µM (inactive)
GI50 [18]: 11.5 µM
GI50 [19]: 23.8 µM (inactive)
GI50 [20]: 13.2 µM (inactive)
GI50 [21]: 19.5 µM (inactive)
GI50 [22]: 11.2 µM (inactive)
GI50 [23]: 31.8 µM (inactive)
GI50 [24]: 6.32 µM (inactive)
GI50 [25]: 29.3 µM (inactive)
GI50 [26]: 37.8 µM (inactive)
GI50 [27]: 5.65 µM (inactive)
GI50 [28]: 24.5 µM (inactive)
GI50 [29]: 10.4 µM (inactive)
GI50 [30]: 12.6 µM (inactive)
GI50 [31]: 16 µM (inactive)
GI50 [32]: 4.54 µM (inactive)
GI50 [33]: 23.3 µM (inactive)
GI50 [34]: 12 µM (inactive)
GI50 [35]: 21.7 µM (inactive)
GI50 [36]: 8.38 µM (inactive)
GI50 [37]: 13.2 µM (inactive)
GI50 [38]: 11.5 µM (inactive)
GI50 [39]: 6.25 µM (inactive)
GI50 [40]: 7.36 µM (inactive)
GI50 [41]: 31.4 µM (inactive)
GI50 [42]: 3.18 µM (inactive)
GI50 [43]: 11 µM (inactive)
GI50 [44]: 5.2 µM (inactive)
GI50 [45]: 1.74 µM (inactive)
GI50 [46]: 3.55 µM (inactive)
GI50 [47]: > 69.2 µM (inactive)
GI50 [48]: 14.1 µM (inactive)
GI50 [49]: 11.2 µM (inactive)
GI50 [50]: 23.6 µM (inactive)
GI50 [51]: 16.8 µM (inactive)
GI50 [52]: 14.9 µM (inactive)
GI50 [53]: 15.6 µM (inactive)
GI50 [54]: 23.2 µM (inactive)
GI50 [55]: 7.96 µM (inactive)
GI50 [56]: 26.5 µM (inactive)
GI50 [57]: 17.4 µM (inactive)
GI50 [58]: 0.853 µM (active)
GI50 [59]: 6.78 µM (inactive)
